Source: ChEMBL document CHEMBL3430912, “GSK Tres Cantos Anti-Kinetoplastid Screening (TCAKS) Data”

Key:
[1] = biological target: Sterol 14-alpha demethylase (Trypanosoma cruzi (strain CL Brener), UniProt Q7Z1V1); assay: GSK_TCAKS: pIC50 CYP51 from Trypanosoma cruzi.; format: functional
[2] = tested on: Trypanosoma brucei brucei; assay: GSK_TCAKS: pIC50 Trypanosoma brucei viability assay using luminiscence. Assay plates (1536-well) were prepared. T. brucei cultures were harvested and counted in a CASY cell counter. A parasite suspension was prepared at a final concentration of 5 * 10^4 cells/mL in complete HMI9 medium and 6uL was dispensed to all wells containing compounds using a Multidrop Combi dispenser. 6uL of HMI9 media with 0.4% DMSO were dispensed to control columns. Plates were incubated for 24 h at 37C, 5% CO2 then tempered for 10 min at room temperature. ATP content was quantified by adding 4 uL of CellTiter-Glo Reagent (Promega) according to the manufacturer's instructions. Luminescence was measured using a ViewLux.; format: functional, organism-based; conditions: Lister 427, CASY
Leishmania donovani [3] = assay: (§1) GSK_TCAKS: pIC50 Leishmania donovani Imaging: THP-1 Host Macrophages. Assay plates (384-well) were prepared by adding 250nL of compound to each well. For single shot assay, the final compound concentration was 5 uM. […] Automated image analysis was performed with a script developed on Acapella High Content Imaging and Analysis Software (PerkinElmer). Output: THP-1 cell count were reported for each well.; format: functional, organism-based, Homo sapiens
[4] = tested on: Trypanosoma brucei brucei; assay: GSK_TCAKS: pIC50 Trypanosoma brucei viability assay using fluorescence intensity. Assay plates (1536-well) were prepared by dispensing 25nL of compound solution per well using an Echo acoustic dispenser (Labcyte).; format: functional, organism-based; conditions: Lister 427, 2 h
Leishmania donovani [5] = assay: as §1, with “Infected” for “THP-1 Host”, “Percent of infected macrophage cells” for “THP-1 cell count”; format: functional, organism-based, Homo sapiens; conditions: THP-1
Leishmania donovani [6] = assay: GSK_TCAKS: pIC50 Leishmania donovani viability assay using fluorescence intensity. Assay plates (1536-well) were prepared by adding 30nL per well of compound. For single shot assay, the final compound concentration was 5uM. […] Briefly, eGFP LdBOB axenic amastigotes were harvested, fixed and counted in a CASY cell counter (Roche-Applied Science). A final concentration of 1.5 * 10^5 cells per well were prepared in amastigote media containing 500 U/mL penicillin/streptomycin (Invitrogen) and 6uL was dispensed to each experimental well using a Multidrop Combi dispenser (Thermo Scientific). 6uL of assay media was dispensed to control columns used as reference for 100% compound response. Following incubation for 72 h at 37C, 5% CO2, 2 uL of resazurin was added to each well at a final concentration of 0.5 mM in phosphate buffered saline (PBS) with IGEPAL (Sigma-Aldrich), 0.05% (v/v).; format: functional, organism-based
Leishmania donovani [7] = assay: as §1, with “Amastigotes/Macrophages.” for “THP-1 Host Macrophages.”, “Average number of amastigotes per macrophage” for “THP-1”, “cell” for “cell count”; format: functional, organism-based, Homo sapiens; conditions: THP-1
Trypanosoma cruzi [8] = assay: (§2) GSK_TCAKS: pIC50 H2C9 Imaging: H9c2 Host Cardiomyocytes. […] Cells were then washed once with PBS before infection. T. cruzi trypomastigotes, collected at days 5 to 8 after infection from LLC-MK2 parasite infected cultures, were allowed to swim out for 4h at 37C from a centrifuged pellet (2,500 rpm/10 min/room temperature). Trypomastigotes were then collected and counted in a CASY Cell Counter. Trypomastigotes, in supplemented DMEM, were added to H9c2 cultures in a multiplicity of infection of 1 and incubated for 18 h. Cells were washed once with PBS before incubation of the infected H9c2 monolayer with trypsin (Life-Technologies) to detach cells from the flask. Cells were counted in a CASY Cell Counter using a 150 um capillary and their density set at 5 * 10^4 cells per mL in supplemented assay DMEM. Infected H9c2 were dispensed into 384-well poly-lysine coated assay plates at 50uL per well using a Multidrop Combi dispenser. After seeding them, the plates were incubated at 37C, 5% CO2 for 72h. Cultures were then fixed and stained by addition of 50 uL of a solution containing 8% formaldehyde and 4 uM DRAQ5 DNA dye (BioStatus, UK) per well. […] Five images were collected per well for reliable statistical analysis. Automated image analysis was performed with a script developed on Acapella High Content Imaging and Analysis Software (PerkinElmer). Output: Number of H9c2 Host Cardiomyocytes nuclei to determine drug-related cytotoxicity.; format: functional, organism-based, Rattus norvegicus; conditions: H9c2, 4 h
[9] = GSK_TCAKS: pIC50 HepG2 human cell line viability assay using luminiscence. […] Seeding density was checked to ensure that new mono-layers were not more than 50% confluent at the time of harvesting. Cell suspension was added to 500 mL of the same medium at a final density of 1.2 * 10^5 cells/mL. This cell suspension was dispensed (25 uL, 3000 cells per well) into 384-well clear-bottom plates using a Multidrop Combi dispenser. Prior to addition of the cell suspension, the screening compounds (250 nL) were pre-dispensed into the plates with an Echo liquid handler. Plates were incubated for 48 h at 37C, 5% CO2. After incubation, plates equilibrated at room temperature for 30 min before proceeding to develop the luminescent signal. The signal developer, CellTiter-Glo Reagent, was allowed to equilibrate at room temperature for 30 min and added to the plates (25uL per well) using a Multidrop Combi dispenser. Plates were left for 10 min at room temperature for stabilization and then read using a ViewLux.; format: toxicity, cell-based
Trypanosoma cruzi [10] = assay: GSK_TCAKS: pIC50 Trypanosoma cruzi viability assay using beta-GAL activity. This assay was run at single shot at 5uM compound concentration per well. The biological reagents consisted of NIH-3T3 host cells and trypomastigotes parasitic cells; both cell types were set to a 3.3 * 10^5 cells/mL dilution in assay DMEM by means of a CASY cell counter device using a 60um capillary. 6 uL of the mixture were dispensed per well (about 1 * 10^3 host-cells and 1 * 10^3 parasites) with a Multidrop Combi dispenser. […] In all wells, the percentage of DMSO never exceeded 0.5%. Plates incubated for four days at 37C, 5% CO2. The substrate used for the assay fluorescence intensity (FLINT) readout was resorufin-beta-D-galactopiranoside (Sigma-Aldrich) at 5uM per well. It was diluted in PBS supplemented with the soft detergent Igepal (Fluka).; format: functional, organism-based, Mus musculus; conditions: Tulahuen, NIH3T3
Trypanosoma cruzi [11] = assay: as §2, with “Trypanosoma cruzi” for “H2C9”, “Amastigotes/Cell.” for “H9c2 Host Cardiomyocytes.”, “number” for “Number”, “amastigotes per cell as infection level measurement.” for “H9c2 Host Cardiomyocytes nuclei to determine drug-related cytotoxicity.”; format: functional, organism-based, Rattus norvegicus; conditions: H9c2, 4 h
Trypanosoma cruzi [12] = assay: as §2, with “Trypanosoma cruzi” for “H2C9”, “Infected Cells.” for “H9c2 Host Cardiomyocytes.”, “percentage” for “Number”, “infected cells per well as a second infection marker.” for “H9c2 Host Cardiomyocytes nuclei to determine drug-related cytotoxicity.”; format: functional, organism-based, Rattus norvegicus; conditions: H9c2, 4 h

Sterol 14-alpha demethylase, sequence (Q7Z1V1 whole entry): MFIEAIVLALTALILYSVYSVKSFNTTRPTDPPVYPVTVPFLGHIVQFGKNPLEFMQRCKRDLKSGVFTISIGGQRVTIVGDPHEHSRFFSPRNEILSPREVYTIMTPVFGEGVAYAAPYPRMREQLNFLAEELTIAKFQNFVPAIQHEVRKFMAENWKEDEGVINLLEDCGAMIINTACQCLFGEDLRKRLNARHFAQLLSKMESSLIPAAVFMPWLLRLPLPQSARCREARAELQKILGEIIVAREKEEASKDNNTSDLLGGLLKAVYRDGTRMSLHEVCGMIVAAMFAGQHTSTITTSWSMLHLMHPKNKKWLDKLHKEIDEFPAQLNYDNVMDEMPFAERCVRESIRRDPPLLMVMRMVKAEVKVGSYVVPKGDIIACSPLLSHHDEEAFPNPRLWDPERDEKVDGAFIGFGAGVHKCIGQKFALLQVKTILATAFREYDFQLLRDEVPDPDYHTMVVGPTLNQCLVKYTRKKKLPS

Structure (SMILES) | IC50 [1] [µM] | IC50 [2] [µM] | IC50 (Leishmania donovani [3]) [µM] | IC50 [4] [µM] | IC50 (Leishmania donovani [5]) [µM] | IC50 (Leishmania donovani [6]) [µM] | IC50 (Leishmania donovani [7]) [µM] | IC50 (Trypanosoma cruzi [8]) [µM] | IC50 at 48 h [9] [µM] | IC50 (Trypanosoma cruzi [10]) [µM] | IC50 (Trypanosoma cruzi [11]) [µM] | IC50 (Trypanosoma cruzi [12]) [µM]
c1ccc(-c2nc(NCc3ccco3)c3ccccc3n2)nc1 | > 100 | 6.31 | 31.6 | > 39.8 | 2.51 | 3.16 | 2.51 | 2 | > 100 | 6.31 | 3.98 | 3.16
Cc1cc(C)n(-c2nc(NC(C)C)nc(NC(C)(C)C)n2)n1 | > 100 | 12.6 | 6.31 | 20 | 5.01 | 3.16 | 3.98 | 0.2 | > 100 | 2.24 | 0.501 | 1.58
COc1ccc(C2CC(c3ccc(NS(C)(=O)=O)cc3)=NN2C(=O)c2cccs2)cc1OC (centres undefined) | 12.6 | 25.1 | > 50.1 | 15.8 | 5.01 | 12.6 | 3.98 | > 50.1 | > 100 | 25.1 | 15.8 | 31.6
COc1ccccc1C1CC(c2ccc(NS(C)(=O)=O)cc2)=NN1C(=O)c1cccs1 (centres undefined) | 25.1 | 20 | > 50.1 | 15.8 | 3.98 | 3.98 | 2.51 | > 50.1 | > 100 | 25.1 | > 50.1 | > 50.1
CCS(=O)(=O)Nc1ccc(C2=NN(C(=O)c3cccs3)C(c3ccccc3OC)C2)cc1 (centres undefined) | 25.1 | 15.8 | > 50.1 | 5.01 | 7.94 | 1.26 | 7.94 | > 50.1 | > 100 | 7.94 | > 50.1 | > 50.1
CCOc1ccc(CN(C)Cc2nc(Nc3ccc(C)cc3)[nH]c(=N)n2)cc1 | 15.8 | 2 | 39.8 | 2.51 | 3.98 | 31.6 | 3.16 | 3.16 | 31.6 | 6.31 | 5.01 | 5.01
CCC(CC)C(=O)Nc1cccc(C(=O)Nc2nnc(C3CCCCC3)s2)c1 | > 100 | 0.631 | > 50.1 | 0.251 | > 50.1 | > 50.1 | > 50.1 | > 50.1 | > 100 | 10 | 15.8 | 25.1
CCN(CC)c1nc(N(C)C)nc2c1CN(Cc1ccccc1)CC2 | 10 | 20 | 39.8 | 20 | 6.31 | 7.94 | 3.98 | > 50.1 | 63.1 | 6.31 | 3.98 | 20
Cc1[nH]nc(C(F)(F)F)c1NC(=O)CCn1cc(Cl)c([N+](=O)[O-])n1 | > 100 | 0.794 | 15.8 | 0.501 | > 50.1 | > 50.1 | > 50.1 | > 50.1 | > 100 | 7.94 | 6.31 | 25.1
O=c1ccc2ccc(F)c3c2n1C[C@H]3CN1CCN(CC(O)c2cc3c(cn2)OCS3)CC1 (some centres undefined) | > 100 | 0.398 | > 50.1 | 0.2 | > 50.1 | 20 | > 50.1 | > 50.1 | > 100 | 0.708 | 0.316 | 0.631
COc1cc(Cl)c(C)cc1NC(=O)c1ccc([N+](=O)[O-])s1 | 15.8 | 10 | > 50.1 | 0.501 | 6.31 | 7.94 | 5.01 | 2.51 | 31.6 | 0.631 | 0.501 | 0.631
Cc1cc(NC(=O)c2ccc([N+](=O)[O-])s2)ccc1Br | 10 | 5.01 | 15.8 | 0.316 | 2.51 | 3.16 | 1.58 | 2.51 | 39.8 | 0.251 | 0.251 | 0.398
CS(=O)(=O)c1ccccc1C(=O)N(Cc1ccccc1)c1ccccc1 | 20 | 0.631 | > 50.1 | 0.398 | > 50.1 | 15.8 | 15.8 | > 50.1 | > 100 | 50.1 | 39.8 | > 50.1
Cc1ccc(Nc2nc(N)nc(CNC(c3nc4ccccc4[nH]3)C(C)C)n2)cc1 (centres undefined) | 50.1 | 5.01 | 25.1 | 7.94 | 2 | 3.98 | 1.26 | > 50.1 | > 100 | 1 | 5.01 | 7.94
O=C(Nc1ccc(S(=O)(=O)N2CCCC2)cc1)c1ccc([N+](=O)[O-])s1 | > 100 | 0.2 | > 50.1 | 0.158 | 1.58 | 7.94 | 1 | 1.58 | 6.31 | 0.2 | 0.2 | 0.2
Cc1ccc(-c2csc(NC(=O)C=Cc3ccc(S(=O)(=O)N4CCOCC4)cc3)n2)o1 | 20 | 5.01 | > 50.1 | 3.16 | 5.01 | 6.31 | 0.794 | 31.6 | > 100 | 7.94 | 10 | 10
O=C(Nc1nc2cc(Cl)ccc2o1)c1cccc(Cl)c1 | > 100 | 0.794 | 6.31 | 0.794 | > 50.1 | 0.398 | > 50.1 | 2.51 | > 100 | 0.794 | 0.631 | 0.794
